Drawing on patent publication US20220380347A1, “INHIBITORS OF CYSTEINE PROTEASES AND METHODS OF USE THEREOF” (Pardes Biosciences, Inc., priority 2020, published 2022), this text covers EC50 and IC50 for 29 compounds.

One test concerns the target 229E Mpro (Human coronavirus 229E, UniProt P0C6X1). Briefly: 229E Mpro enzymatic assay (standard methods, SARS-CoV2 Mpro assay given as exemplary). The class given is biochemical, human coronavirus (HCov) 229E. Put shortly: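 IC50 for 229E Mpro by standard methods; exemplary SARS-CoV-2 protocol used C-His6-tagged Mpro from E. coli, 25 nM enzyme, 25 μM substrate (Km 13.5 μM), in Tris-HCl pH 7.3, NaCl, EDTA, TCEP, 0.1% BSA. Inhibition normalised to no-compound and full-effect controls; four-parameter fit.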

Test [1] has as its target COVID-19 (nCoV-2019, SARS-CoV2) Mpro (Severe acute respiratory syndrome coronavirus 2, UniProt P0DTD1). The test can be described thus: COVID-19 (nCoV-2019, SARS-CoV2) Mpro enzymatic assay. It is filed as biochemical. To be noted: 25 nM Mpro, 25 μM substrate; read-out: COVID-19 Mpro IC50.
A further test deals with HCov OC43. Briefly: HCoV OC43 cytopathic effect (CPE) assay, CellTiter Glo. It is filed as cell-based, human coronavirus (HCov) OC43. Background: Damage to the host cells serves as the signal in cytopathic effect assays.
The mark [2] stands for this setting: Betacoronavirus 1, OC43, read-out: OC43 IC50 (uM) MEDIAN, median.
Setting [3] is: read-out: OC43 IC50 (uM) MEDIAN, median.

SMILES strings stand for the structures. Read-outs that look alike come from different tables or passages of the source. A value given as a limit tells only on which side of the number the result lay.

Sequence of 229E Mpro (P0C6X1 2966-3267): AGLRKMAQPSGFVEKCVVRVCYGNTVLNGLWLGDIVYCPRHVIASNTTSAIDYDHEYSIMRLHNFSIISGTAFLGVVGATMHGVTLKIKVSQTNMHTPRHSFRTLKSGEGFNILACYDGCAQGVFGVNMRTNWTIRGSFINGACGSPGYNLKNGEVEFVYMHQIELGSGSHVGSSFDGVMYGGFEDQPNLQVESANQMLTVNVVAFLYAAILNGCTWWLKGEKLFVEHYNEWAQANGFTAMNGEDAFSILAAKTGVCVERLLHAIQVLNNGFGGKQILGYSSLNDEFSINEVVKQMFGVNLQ

A word on the EC50: it is the concentration giving half of the maximal effect. Broadly, the IC50 is the concentration that gives 50% inhibition. Regarding `CC(C)(C)c1ccc(N(C(=O)[C@H]2C[C@@H](O)CN2C#N)C(C(=O)NCc2cccnc2)c2cccnc2)cc1` (single isomer, unassigned) [643 Isomer 1], the EC50 on 229E Mpro (229E Mpro EC50) is below 2 µM. The IC50 (in test [1]; with HCov OC43 (setting [2])) was below 2 µM each time.

`N#CN1C[C@@H]2C[C@@H]2[C@@H]1C(=O)N(c1ccc(S(F)(F)(F)(F)F)cc1)C(C(=O)NC1CCC(F)(F)CC1)c1cncc(F)c1` (single isomer, unassigned) [1096 Isomer 1] yielded an EC50 on 229E Mpro (229E Mpro EC50) below 2 µM. In addition, the IC50 (in test [1]; with HCov OC43 (setting [2])) was 2 to 10 µM each time.

As for `CO[C@@H]1C[C@H](C(=O)N(c2ccc(C3CC3)cc2F)C(C(=O)NC2CCC(F)(F)CC2)c2cnccc2C(F)(F)F)N(C#N)C1` (single isomer, unassigned) [Compound 1309 Isomer 2], on 229E Mpro (read-out: 229E Mpro EC50), the EC50 is below 2 µM. The IC50 (in test [1]; in the test with HCov OC43 (setting [3])) was 2 to 10 µM throughout.

As for `N#CN1C[C@H](O)C[C@@H]1C(=O)N(c1ccc(C2(C(F)(F)F)CC2)cc1)C(C(=O)NC1CCCCC1)c1cccnc1` (single isomer, unassigned) [735 Isomer 2], the EC50 at 229E Mpro (read-out: 229E Mpro EC50) was below 2 µM. In addition, the IC50 (in test [1]; in the test with HCov OC43 (setting [3])) was 2 to 10 µM in each case.

On to `C[C@@]1(O)C[C@H](C(=O)N(c2ccc(S(F)(F)(F)(F)F)cc2)C(C(=O)NC2CCC(F)(F)CC2)c2cccnc2F)N(C#N)C1` (single isomer, unassigned) [1158 Isomer 1], for which, on 229E Mpro (229E Mpro EC50), the EC50 is below 2 µM. Moreover, the IC50 (in test [1]; in the test on HCov OC43 (setting [2])) was below 2 µM throughout.

As to `COC1CN(C#N)C(C)(C(=O)N(c2ccc(S(F)(F)(F)(F)F)cc2)C(C(=O)NC2CCC(F)(F)CC2)c2cncc(F)c2)C1` (stereo not drawn) [Compound 1135b, 1-cyano-N-[2-[(4,4-difluorocyclohexyl)amino]-1-(5-fluoro-3-pyridyl)-2-oxo-ethyl]-4-methoxy-2-methyl-N-[4-(pentafluoro-λ^6-sulfanyl)phenyl]pyrrolidine-2-carboxamide], the EC50 on 229E Mpro (229E Mpro EC50) was above 30 µM. In addition, the IC50 (in test [1]; in the test on HCov OC43 (setting [2])) was above 30 µM throughout.

`CC(C)(C)c1ccc(N(C(=O)[C@H]2CCCN2C#N)C(C(=O)NC2CCCCC2)c2cncc(F)c2)cc1` (single isomer, unassigned) [475 Isomer 2]: the EC50 on 229E Mpro (229E Mpro EC50) fell in the range of 2 to 10 µM. For the same compound, the IC50 (in test [1]; in the test with HCov OC43 (setting [3])) was 10 to 30 µM in each case.

With `CO[C@@H]1C[C@H](C(=O)N(c2ccc(C(C)(C)C)cc2F)C(C(=O)NC2CCC(F)(F)CC2)c2cncc(F)c2)N(C#N)C1` (single isomer, unassigned) [1207 Isomer 1], the EC50 at 229E Mpro (229E Mpro EC50) fell in the range of 10 to 30 µM. Also, the IC50 in test [1] lay in the range of 2 to 10 µM; with HCov OC43 (setting [3]), 10 to 30 µM.

In the case of `N#CN1C[C@H]2C[C@H]2[C@@H]1C(=O)N(c1ccc(S(F)(F)(F)(F)F)cc1)C(C(=O)NC1CCC(F)(F)CC1)c1cnccc1C(F)(F)F` (single isomer, unassigned) [Compound 1318 Isomer 2], the EC50 on 229E Mpro (read-out: 229E Mpro EC50) was below 2 µM. For the same compound, the IC50 (in test [1]; in the test with HCov OC43 (setting [3])) was below 2 µM in each case.

For `CO[C@@H]1C[C@H](C(=O)N(c2ccc(S(F)(F)(F)(F)F)cc2)C(C(=O)N(CCO)C2CCC(F)(F)CC2)c2cccnc2)N(C(=O)OCc2ccccc2)C1` (stereo partly drawn) [Compound 1244, Benzyl (2R,4R)-2-[[2-[(4,4-difluorocyclohexyl)-(2-hydroxyethyl)amino]-2-oxo-1-(3-pyridyl)ethyl]-[4-(pentafluoro-λ^6-sulfanyl)phenyl]carbamoyl]-4-methoxy-pyrrolidine-1-carboxylate], the EC50 at 229E Mpro (229E Mpro EC50) was above 30 µM. Besides, the IC50 (in test [1]; in the test on HCov OC43 (setting [2])) was above 30 µM each time.

On 229E Mpro (229E Mpro EC50), `N#CN1C[C@@H](OCc2ccccc2)C[C@@H]1C(=O)N(c1ccc(S(F)(F)(F)(F)F)cc1)C(C(=O)NC1CCC(F)(F)CC1)c1cncc(F)c1` (single isomer, unassigned) [1280 Isomer 2] showed an EC50 of 2 to 10 µM. Moreover, the results for the IC50 (in test [1]; with HCov OC43 (setting [3])) were above 30 µM and 2 to 10 µM, respectively.

As to `C[C@H](NC(=O)C(c1cncc(F)c1)N(C(=O)[C@H]1C[C@@](C)(O)CN1C#N)c1ccc(S(F)(F)(F)(F)F)cc1)c1ccccc1` (single isomer, unassigned) [1328 Isomer 2], the EC50 at 229E Mpro (read-out: 229E Mpro EC50) is below 2 µM. Moreover, the IC50 (in test [1]; in the test with HCov OC43 (setting [3])) was 2 to 10 µM each time.

With `CC(C)(C)c1ccc(NC2(C#N)CCCc3ccncc32)cc1` (stereo not drawn) [Compound 690a], the EC50 at 229E Mpro (229E Mpro EC50) is above 30 µM. Also, the IC50 (in test [1]; in the test on HCov OC43 (setting [2])) was above 30 µM in each case.

`CC(C(=O)NC1CCC(F)(F)CC1)(c1cccnc1)N(C(=O)[C@H]1[C@@H]2C[C@@H]2CN1C#N)c1ccc(S(F)(F)(F)(F)F)cc1` (single isomer, unassigned) [Compound 1251 Isomer 2] returned an EC50 on 229E Mpro (229E Mpro EC50) below 2 µM. The IC50 (in test [1]; with HCov OC43 (setting [3])) was below 2 µM each time.

Regarding `CN(C)CCNC(=O)C(c1cccnc1)N(C(=O)[C@H]1CCCN1C#N)c1ccc(C(C)(C)C)cc1` (single isomer, unassigned) [Compound 435 Isomer 2], the EC50 on 229E Mpro (read-out: 229E Mpro EC50) is below 2 µM. In addition, the IC50 in test [1] lay in the range of 10 to 30 µM; in the test on HCov OC43 (read-out: OC43 IC50 (uM) MEDIAN, median, listed as 435 Isomer 2), 10 to 30 µM.

Consider `CO[C@@H]1C[C@H](C(=O)N(c2ccc(S(F)(F)(F)(F)F)cc2)C(C(=O)N2CCN(C)C(=O)C2)c2cccnc2)N(C#N)C1` (stereo partly drawn) [Compound 1188], for which the EC50 at 229E Mpro (229E Mpro EC50) is below 2 µM. The IC50 is 2 to 10 µM in test [1] and below 2 µM with HCov OC43 (setting [2]).

In turn, `CC(C)(C)c1ccc(N(C(=O)[C@H]2C[C@@H](O)CN2C#N)C(C(=O)NC2CCCCC2)c2cccnc2)c(Cl)c1` (stereo partly drawn) [Compound 775, (2R,4R)—N-(4-(tert-butyl)-2-chlorophenyl)-1-cyano-N-(2-(cyclohexylamino)-2-oxo-1-(pyridin-3-yl)ethyl)-4-hydroxypyrrolidine-2-carboxamide] had an EC50 on 229E Mpro (229E Mpro EC50) of 2 to 10 µM. Further, the IC50 was 10 to 30 µM in test [1] and above 30 µM with HCov OC43 (setting [2]).

Consider `CO[C@@H]1C[C@H](C(=O)N(c2ccc(S(F)(F)(F)(F)F)cc2F)C(C(=O)NC2CCC(F)(F)CC2)c2cccnc2)N(C#N)C1` (single isomer, unassigned) [1288 Isomer 1], for which the EC50 at 229E Mpro (229E Mpro EC50) was below 2 µM. The IC50 (in test [1]; with HCov OC43 (setting [2])) was below 2 µM each time.

`N#CN1C[C@H](O)C[C@@H]1C(=O)N(c1ccc(S(F)(F)(F)(F)F)cc1F)C(C(=O)NC1CCC(F)(F)CC1)c1cccnc1` (single isomer, unassigned) [1288a Isomer 2]: on 229E Mpro (read-out: 229E Mpro EC50), the EC50 was below 2 µM. The IC50 (in test [1]; with HCov OC43 (setting [3])) was 2 to 10 µM in each case.

`CO[C@@H]1C[C@H](C(=O)N(c2ccc(C(C)(C)C)cc2)C(C)(C(=O)NC2CCC(F)(F)CC2)c2cccnc2)N(C#N)C1` (single isomer, unassigned) [1232 Isomer 1]: the EC50 at 229E Mpro (229E Mpro EC50) is 2 to 10 µM. The IC50 (in test [1]; with HCov OC43 (setting [2])) was 2 to 10 µM in each case.

As for `N#CN1C[C@H](O)C[C@@H]1C(=O)N(c1ccc(C2CC2)c(F)c1)C(C(=O)NC1CCCCC1)c1cccnc1` (single isomer, unassigned) [Compound 767 Isomer 2], at 229E Mpro (read-out: 229E Mpro EC50), the EC50 is below 2 µM. Also, the half-inhibitory concentration (IC50) (in test [1]; in the test on HCov OC43 (setting [3])) was 2 to 10 µM throughout.

Take `CC(C)(C)c1ccc(N(C(=O)[C@H]2CCCN2C#N)C(C(=O)NCCN2CCOCC2)c2cccnc2)cc1` (single isomer, unassigned) [391 Isomer 2]: the EC50 at 229E Mpro (229E Mpro EC50) was in the range of 2 to 10 µM. The IC50 (in test [1]; in the test on HCov OC43 (setting [3])) was 10 to 30 µM each time.

`N#CC1(Nc2ccc(S(F)(F)(F)(F)F)cc2)CCCc2ccncc21` (stereo not drawn) [Compound 690b] yielded an EC50 at 229E Mpro (229E Mpro EC50) above 30 µM. Moreover, the IC50 (in test [1]; with HCov OC43 (setting [2])) was above 30 µM in each case.

`N#CC1(C(=O)N(c2ccc(S(F)(F)(F)(F)F)cc2)C(C(=O)NC2CCC(F)(F)CC2)c2cncc(F)c2)CC1` (stereo not drawn) [Compound 1289, 1-cyano-N-[2-[(4,4-difluorocyclohexyl)amino]-1-(5-fluoro-3-pyridyl)-2-oxo-ethyl]-N-[4-(pentafluoro-λ^6-sulfanyl)phenyl]cyclopropanecarboxamide] showed an EC50 on 229E Mpro (229E Mpro EC50) above 30 µM. Besides, the IC50 (in test [1]; in the test on HCov OC43 (setting [2])) was above 30 µM in each case.

For `CC(C(=O)NC1CCC(F)(F)CC1)(c1cccnc1)N(C(=O)[C@H]1C[C@@](C)(O)CN1C#N)c1ccc(S(F)(F)(F)(F)F)cc1` (single isomer, unassigned) [Compound 1077 Isomer 2], the EC50 at 229E Mpro (read-out: 229E Mpro EC50) was below 2 µM. Also, the IC50 (in test [1]; in the test on HCov OC43 (setting [3])) was below 2 µM in each case.

As to `C[C@]1(O)CN[C@@H](C(=O)N(c2ccc(S(F)(F)(F)(F)F)cc2)C(C(=O)NC2CCC(F)(F)CC2)c2cnnc3ccccc23)C1` (stereo partly drawn) [Compound 711a], at 229E Mpro (229E Mpro EC50), the EC50 was below 2 µM. Further, the IC50 (in test [1]; with HCov OC43 (setting [2])) was below 2 µM throughout.

`Cc1c[nH]c2cc(N(C(=O)[C@H]3C[C@@H](O)CN3C#N)C(C(=O)NC3CCC(F)(F)CC3)c3cncc(F)c3)ccc12` (single isomer, unassigned) [Compound 747b Isomer 2]: the EC50 on 229E Mpro (read-out: 229E Mpro EC50) was below 2 µM. Moreover, the IC50 (in test [1]; in the test with HCov OC43 (setting [3])) was 2 to 10 µM each time.

`CC(C)(C)c1ccc(N(C(=O)[C@H]2C[C@@H](O)CN2C#N)C(C(=O)NC2CCCCC2)c2cncc(Cl)c2)cc1` (single isomer, unassigned) [675 Isomer 1] gave an EC50 on 229E Mpro (229E Mpro EC50) below 2 µM. In addition, the IC50 (in test [1]; in the test with HCov OC43 (setting [2])) was below 2 µM each time.

Consider `N#CN1C[C@@H](F)C[C@@H]1C(=O)N(c1ccc(S(F)(F)(F)(F)F)cc1)C(C(=O)NC1CCC(F)(F)CC1)c1cncc(F)c1` (single isomer, unassigned) [Compound 1099 Isomer 1], for which the EC50 on 229E Mpro (229E Mpro EC50) was below 2 µM. The IC50 (in test [1]; in the test on HCov OC43 (setting [2])) was below 2 µM in each case.
